Experimental data reported in patent US8163536B2, “Device for preparing an undifferentiated cell from a more committed cell” (Tristem Trading (Cyprus) Limited, priority 2000, dated 2012).

Key:
displaced cells = conditions: pre-determined period, then calcium containing medium containing cortisone
From the text: The erythroid progenitors can be cultured and expanded for long periods of time and may be used in the treatment red blood disorder and red blood shortages.

[1] = system: enriched, purified, normal B lymphocytes; experiment: Flow cytometry of enriched, purified, normal B lymphocytes treated with one of three agents (FIG. 20); type: cell-based, human; conditions: compared with the negative control
Method: Initial studies actually identified three agents—granulocyte/monocyte-colony stimulating factor (GM-CSF), erythropoietin and mAb CR3/43. A preparation of enriched, purified, normal B lymphocytes was treated in a device according to the present invention with one of these three agents in a similar manner to that described for CR3/43 and TAL.1B5 above and treated samples examined by flow cytometry as described above. […] In particular, all three agents increased the relative number of CD34^+ cells in the cell population (see FIG. 20).

Compound	retrodifferentiation of more committed cells (displaced cells)	relative number of CD34+ cells in the cell population (FIG. 20) [1]
O=C(O)CN(CCN(CC(=O)O)CC(=O)O)CC(=O)O [EDTA]	caused more committed cells to retrodifferentiate into undifferentiated cells	
GM-CSF: granulocyte/monocyte-colony stimulating factor, haematopoietic growth factor		increased
